Test results reported in PMC3906059, “Activation and Inhibition of TMEM16A Calcium-Activated Chloride Channels” (PLoS ONE, 2014).
Where “and” joins values, the source holds several entries; their conditions need not be identical. Equal entries are not always repeated. Entries after “also recorded” stand apart in the source; their conditions may differ.

How the values were obtained:
CaCC of Xenopus oocytes = test system: CaCC of Xenopus oocytes; parameters: method as in PMID 11279188; details: cited from earlier work
TMEM16A (ANO1) [1] = biological target: T1, TMEM16A (ANO1) (Mus musculus, UniProt Q8BHY3); assay: Anion permeability of the ANO1 pore, Erev under bi-ionic conditions; type: cell-based; details: for permeability ratio PX/PCl: Ca^2+-activated current, calculated from Erev after junction potential correction; for zero current potential of I–V curve: example ramp −80 to +80 mV, [Ca^2+] = 20 µM, intracellular salt 140 mM (NaHCO3 130 mM + 10 mM NaCl)
T1 construct: We subcloned the coding region of the cDNA into pEGFP-N3 vector; expressed in transfected cells; host or cells: HEK293 cells
T1 sequence (Q8BHY3 1-956 isoform Q8BHY3-2): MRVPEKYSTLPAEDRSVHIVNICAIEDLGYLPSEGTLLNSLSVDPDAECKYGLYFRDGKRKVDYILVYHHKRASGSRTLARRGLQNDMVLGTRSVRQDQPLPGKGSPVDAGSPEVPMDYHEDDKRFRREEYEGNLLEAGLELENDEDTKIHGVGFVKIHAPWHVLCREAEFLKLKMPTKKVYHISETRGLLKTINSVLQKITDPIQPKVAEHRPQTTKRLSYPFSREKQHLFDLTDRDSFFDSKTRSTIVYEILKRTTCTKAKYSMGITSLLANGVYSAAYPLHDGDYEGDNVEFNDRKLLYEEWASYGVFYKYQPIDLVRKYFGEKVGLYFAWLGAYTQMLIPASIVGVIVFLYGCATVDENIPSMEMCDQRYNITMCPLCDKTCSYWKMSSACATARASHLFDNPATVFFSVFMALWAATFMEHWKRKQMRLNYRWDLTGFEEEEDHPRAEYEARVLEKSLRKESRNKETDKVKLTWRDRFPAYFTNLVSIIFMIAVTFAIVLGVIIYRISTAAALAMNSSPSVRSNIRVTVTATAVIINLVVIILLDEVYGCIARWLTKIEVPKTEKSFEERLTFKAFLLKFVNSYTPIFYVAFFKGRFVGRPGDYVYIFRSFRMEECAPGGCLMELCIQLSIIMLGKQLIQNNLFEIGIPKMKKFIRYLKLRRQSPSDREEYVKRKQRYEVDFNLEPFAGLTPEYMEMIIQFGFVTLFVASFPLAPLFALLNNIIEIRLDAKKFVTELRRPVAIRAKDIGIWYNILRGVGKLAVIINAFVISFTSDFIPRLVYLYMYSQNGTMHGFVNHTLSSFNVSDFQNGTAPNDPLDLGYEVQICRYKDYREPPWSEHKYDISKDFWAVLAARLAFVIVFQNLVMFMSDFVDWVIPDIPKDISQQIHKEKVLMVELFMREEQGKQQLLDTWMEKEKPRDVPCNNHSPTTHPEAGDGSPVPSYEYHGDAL
From the text: (§1) The mouse TMEM16A cDNA (NCBI reference sequence: NM_001242349.1) encoding ANO1 CaCC was a generous gift from Dr. Lily Jan. We subcloned the coding region of the cDNA into pEGFP-N3 vector (Clontech Laboratories, Inc.), resulting in a construct in which an enhanced green fluorescent protein (eGFP) was attached to the C-terminus of the ANO1 protein. The sequence was confirmed by commercially-available DNA sequencing service. This eGFP-attached ANO1 cDNA construct was used for channel expression throughout the study. The cDNA was transfected into human embryonic kidney (HEK) 293 cells using lipofectamine transfection methods, [42], [43]. A fluorescent light source and a GFP filter set (Chroma Technology Co.) in the DM IRB inverted microscope (Leica Microsystems) were used to identify transfected cells expressing channel proteins. Electrophysiological experiments were performed ∼24 to 72 hours after transfection.
The anion permeability of the ANO1 pore was examined under bi-ionic conditions in which the extracellular solution contained 140 mM NaCl (the zero-Ca^2+ solution). The intracellular solution contained 140 mM sodium salts of various anions with the exception of the HCO3 ^− experiment in which the solution contained 130 mM NaHCO3 and 10 mM NaCl. In all intracellular solutions for the bi-ionic experiments, 0.1 mM EGTA and 0.12 mM total Ca^2+ or Sr^2+ were added to the solution to activate the ANO1 channel (Free [Ca^2+] or [Sr^2+] were saturating concentrations). Erev of the open channel was measured in two ways. First, under voltage-clamp configuration, a 3-sec voltage ramp from −80 mV to +80 mV was applied and the Erev of the leak-subtracted I-V curve was then determined (see Fig. 5 A & B). The second method employed the current-clamp (I = 0) mode in which the patch was exposed to divalent cations throughout the recording (Fig. 5 C and Fig. 6 A & C). When the intracellular solution contained the same concentration of Cl^− as that in the extracellular side, the recorded voltage (EI = 0) was normally close to 0 mV. When the intracellular solution was replaced by the one containing other anions, the value of EI = 0 changed to a new value corresponding to the Erev of the new ionic condition. It is important to point out that the measurement of Erev can be imprecise if the amplitude of the ANO1 current is not within a proper range. Therefore, in permeability ratio measurements we only used the data obtained from patches with a maximal current in the range of 100 pA–1000 pA at +40 mV. All the presented Erev values (and the recording traces for measuring Erev) are not corrected for junction potential difference between solutions because the junction potentials are relatively small. However, the reported permeability ratios were calculated based on the junction potential-corrected Erev. The correction for the junction potential results in very small changes in the calculated permeability ratios.
The permeability ratios of various anions versus Cl^− (PX/PCl, where X represents various anions) were calculated using the Erev obtained from bi-ionic experiments according to the following equation (eq. 3), PX/PCl = exp[Erev/(RT/F)], where R, T, and F are the gas constant, absolute temperature, and Faraday constant, respectively. Comparing the difference between Erev’s of the Ca^2+- and Sr^2+-activated current was performed using the pair t test at the significant level of 0.05.

TMEM16A (ANO1) [2] = biological target: T1, TMEM16A (ANO1); assay: Activation of ANO1 current by divalent cations, excised inside-out patch with fast solution exchange; type: cell-based
From the text: as §1
All chemicals were reagent grade. Regular salts (such as NaCl, NaOH, CaCl2, SrCl2, BaCl2, MgCl2 or sodium salts of various anions) were purchased from Fisher Chemicals (Fair Lawn, NJ), J. T. Baker (Phillipsburg, NJ) or Sigma Chemicals Co. (St. Louis, MO). EGTA, HEPES, and NFA were from Sigma Chemicals Co. Excised inside-out patch-clamp recordings were performed throughout the study. The extracellular (pipette) solution in all experiments contained: 140 mM NaCl, 10 mM HEPES, 0.1 mM EGTA, pH = 7.4. The regular intracellular solution contained 10 mM HEPES and 140 mM sodium salt of Cl^− or other anions. Various concentrations of divalent cations were made by adding certain total concentrations of divalent cations (Cl^− salts) into the solution containing a defined concentration of EGTA. We defined the pipette solution as the “zero-Ca^2+” solution. A solution containing a saturating [Ca^2+] was made by adding 0.12 mM total [Ca^2+] into the aforementioned zero-Ca^2+ solution, resulting in a solution containing ∼20 µM free [Ca^2+]. For making non-saturating [Ca^2+] solutions, the solutions included 1 mM EGTA. To make solutions containing Sr^2+ and Ba^2+, only 0.1 mM EGTA was used. The pH of all solutions was adjusted to 7.4.
Because of weak Mg^2+-EGTA binding, we referred the total [Mg^2+] as the free [Mg^2+]. The free [Ca^2+], [Sr^2+], and [Ba^2+] were calculated using the MaxChelator program (Ver1.2) kindly provided by Chris Patton from the Stanford University. This program was developed based on the binding constants available in the National Institute of Standard and Technology (NIST) between EGTA and these three divalent cations. Table S1, Table S2, and Table S3 list respectively the calculated free [Ca^2+], [Sr^2+], and [Ba^2+] used in this study. All added divalent cations were Cl^− salts. […] For example, in a solution containing 5 mM, 10 mM or 30 mM MgCl2, only 130 mM, 120 mM or 80 mM of NaCl, respectively, were added to the solution.
The patch-clamp recording pipettes were fabricated from borosilicate glass capillaries (World Precision Instruments) using PP830 electrode puller (Narishige International). When filled with the pipette solution, the electrode resistance was ∼1.5–3 MΩ. The experiments were carried out at room temperature (20–23°C) using the Axopatch 200B amplifier controlled by the Digidata I/O converter and the pClamp9 software (Axon Instruments/Molecular Devices).
Solution exchange was achieved using the SF-77 solution exchanger (Warner Instruments). After the excised inside-out patch mode was established, the tip of the patch pipette was positioned at the exit of the solution-delivery pipes of the SF-77 solution exchanger. The switch of solution pipes was controlled by a digital signal delivered from the Digidata 1320 digitizing board. […]

[3] = Ca^2+-activated current (20 µM), 140 mM extracellular NaCl, anion as intracellular sodium salt 140 mM (HCO3: 130 mM NaHCO3 + 10 mM NaCl), without junction potential correction, averaged
[4] = current activated by 20 µM Sr^2+, current clamp (I = 0), without correcting for junction potential

In the case of `O=C(O)c1c2ccccc2cc2ccccc12` [A9C], the “sideness of the block” value (CaCC of Xenopus oocytes) is given as “from the extracellular side” and the “voltage dependence of inhibition” value (CaCC of Xenopus oocytes) is given as “voltage dependent”.
For `N#C[S-].[Na+]` [SCN^−], the “Erev (bi-ionic potential)” value (TMEM16A (ANO1) [1]; [3]) was 62.0±2.4 mV, the “Erev (bi-ionic potential)” value (TMEM16A (ANO1) [1]; Ca^2+-activated current (20 µM), 140 mM extracellular NaCl, anion as intracellular sodium salt 140 mM (HCO3: 130 mM NaHCO3 + 10 mM NaCl), without junction potential correction, averaged, listed as SCN^–) was “~+60 mV” and the “permeability ratio PX/PCl” value (TMEM16A (ANO1) [1]) was roughly 11. The “Erev (bi-ionic potential)” value (TMEM16A (ANO1) [1]; [4]) was 59.4±0.8 mV, the “zero current potential of I–V curve” value (TMEM16A (ANO1) [1]; 140 mM extracellular NaCl) was “+64 mV” and the “voltage shift induced by SCN^− in Sr^2+ smaller than that in Ca^2+ by” value (TMEM16A (ANO1) [1]; same patch, 140 mM intracellular NaSCN, 4 patches) was roughly 1 mV.
In the case of `[I-].[Na+]` [I^−], the “Erev (bi-ionic potential)” value (TMEM16A (ANO1) [1]; [3]) is reported as 35.9±3.3 mV, the “Erev (bi-ionic potential)” value (TMEM16A (ANO1) [1]; Ca^2+-activated current (20 µM), 140 mM extracellular NaCl, anion as intracellular sodium salt 140 mM (HCO3: 130 mM NaHCO3 + 10 mM NaCl), without junction potential correction, averaged, listed as I^–) is reported as “~+35 mV” and the “permeability ratio PX/PCl” value (TMEM16A (ANO1) [1]) is reported as roughly 4.1. For the same compound, the “Erev (bi-ionic potential)” value (TMEM16A (ANO1) [1]; [4]) was 33.4±0.3 mV and the “zero current potential of I–V curve” value (TMEM16A (ANO1) [1]; 140 mM extracellular NaCl) was “+39 mV”.
In the case of `[Br-].[Na+]` [Br^−], the “Erev (bi-ionic potential)” value (TMEM16A (ANO1) [1]; [3]) is reported as 18.0±1.2 mV, the “permeability ratio PX/PCl” value (TMEM16A (ANO1) [1]) is reported as roughly 2.1 and the “Erev (bi-ionic potential)” value (TMEM16A (ANO1) [1]; [4]) is reported as 16.2±0.4 mV. For the same compound, the “zero current potential of I–V curve” value (TMEM16A (ANO1) [1]; 140 mM extracellular NaCl) was “+17 mV”.
In the case of `[Ba+2].[Cl-].[Cl-]` [Ba^2+], the “fraction of maximal current activated” value (TMEM16A (ANO1) [2]; 404 µM [Ba^2+]) is reported as 70–80%, the “maximal ANO1 current activated by saturating divalent cation compared with Is induced by saturating [Ca^2+]” value (TMEM16A (ANO1) [2]; Is induced by 20 µM Ca^2+, ±40 mV) is reported as “can activate the same maximal current; also recorded: activated the channel to the same maximal current level” and the “Hill coefficient (n) of dose-response activation curve” value (TMEM16A (ANO1) [2]; values covering +40 and −40 mV) is reported as 1.1–1.4 and 1–1.5. The EC50 (TMEM16A (ANO1) [2]; values covering +40 and −40 mV, read-out: K1/2 of ANO1 activation) was 130 to 230 µM and 100 to 200 µM.
In the case of `O=C(O)c1ccccc1Nc1ccccc1` [DPC], the “sideness of the block” value (CaCC of Xenopus oocytes) is given as “from the extracellular side” and the “voltage dependence of inhibition” value (CaCC of Xenopus oocytes) is given as “voltage dependent”.
